Experimental data from patent US12325744B2, “Methods for reducing post-operative cognitive dysfunction (POCD)” (The Kennedy Trust for Rheumatology Research, priority 2010, dated 2025).

Tested on: IL-1β
Test: Plasma (systemic) IL-1β by ELISA after tibial surgery
Assay type: in vivo
Details: wild type mice, minocycline 40 mg/kg i.p., enrofloxacin 10 mg/kg or IL-1Ra 100 mg/kg given prior to surgery, vs surgery alone
Text: Mice were subjected to an open tibial fracture of the left hind paw with intramedullary fixation in aseptic conditions under general anaesthesia with isoflurane and analgesia with buprenorphineas previously described^18. Other groups of animals were not subjected to any intervention (naïve), or received anesthetic/analgesia alone, or underwent surgery with concurrent administration of minocycline, enrofloxacin, or IL-1 receptor antagonist (IL-1Ra). (For further details please refer to supplemental methods).
IL-6, TNF-α and IL-1β were measured by ELISA^19 (Biosource, CA; Bender Medsystem, CA, respectively). Hippocampal IL-1β was measured by ELISA (Bender Medsystem, CA), as previously described^20. To confirm reliability of dilution linearity and spike recovery cytokine measurement were also performed in mice in which inflammation was induced with i.p. LPS (0111:B4, Invivogen, CA). (For further details please refer to supplemental methods).
Mice were randomly assigned to the following groups: surgery under general anesthesia (S), surgery under general anesthesia plus minocycline (M), surgery under general anesthesia plus enrofloxacin (E), surgery under general anesthesia plus interleukin-1 receptor antagonist (IL-1Ra) (I), surgery in IL1R^−/− mice under general anesthesia (K), general anesthesia without surgery (A), and no intervention (naïve wild-type, or naïve IL1R^−/−). Under aseptic conditions, groups of mice were subjected to an open tibial fracture of the left hind paw with an intramedullary fixation as previously described^2. Briefly, isoflurane (Abbot Laboratories Ltd., Queensborough, Kent, UK) 2.1% in air (1.5 MAC)^3 and buprenorphine (Reckitt Benckiser Healthcare Ltd, Hull, UK) 0.1 mg/kg subcutaneously (sc), were given to provide both surgical anesthesia and extended post-operative analgesia for the surgical intervention and post-surgical recovery. After shaving the overlying skin and disinfecting with chlorhexidine gluconate 0.5% and isopropyl alcohol 70% (PDI, Orangeburg, NY, USA) a fracture of the tibial shaft was created under direct vision. […]

**Q.** How did the “Plasma IL-1β after surgery, effect of treatment” value turn out when `CCN1CCN(c2cc3c(cc2F)c(=O)c(C(=O)O)cn3C2CC2)CC1` [enrofloxacin, reference compound] was run?
**A.** exerted no effect on IL-1β plasma concentration

**Q.** What about the “Plasma IL-1β after surgery, effect of treatment” value (listed as Enrofloxacin) of the same compound?
**A.** failed to reduce plasma levels of IL-1β
